Test results: patent publication US12686846B2, “Plant sweet and yeast MSF transporter capable of transporting different sugars simultaneously” (THE BOARD OF TRUSTEES OF THE UNIVERSITY OF ILLINOIS, priority 2020, dated 2026)

How the values were obtained:
[1] = target: T1, Lipomyces starkeyi LST1_205437 transporter, wild type, SEQ ID NO: 4 (Lipomyces starkeyi, UniProt A0A1E3QE37); test: C14 labeled sugar uptake assay (zero-trans influx), SR8D8 expressing LST1_205437; format: cell-based; conditions: initial glucose uptake (5 s), 30° C., pH 6.5; cell wet weight; ± SEM
T1 construct: whole-cell 14C sugar uptake
T1 sequence (A0A1E3QE37 1-603): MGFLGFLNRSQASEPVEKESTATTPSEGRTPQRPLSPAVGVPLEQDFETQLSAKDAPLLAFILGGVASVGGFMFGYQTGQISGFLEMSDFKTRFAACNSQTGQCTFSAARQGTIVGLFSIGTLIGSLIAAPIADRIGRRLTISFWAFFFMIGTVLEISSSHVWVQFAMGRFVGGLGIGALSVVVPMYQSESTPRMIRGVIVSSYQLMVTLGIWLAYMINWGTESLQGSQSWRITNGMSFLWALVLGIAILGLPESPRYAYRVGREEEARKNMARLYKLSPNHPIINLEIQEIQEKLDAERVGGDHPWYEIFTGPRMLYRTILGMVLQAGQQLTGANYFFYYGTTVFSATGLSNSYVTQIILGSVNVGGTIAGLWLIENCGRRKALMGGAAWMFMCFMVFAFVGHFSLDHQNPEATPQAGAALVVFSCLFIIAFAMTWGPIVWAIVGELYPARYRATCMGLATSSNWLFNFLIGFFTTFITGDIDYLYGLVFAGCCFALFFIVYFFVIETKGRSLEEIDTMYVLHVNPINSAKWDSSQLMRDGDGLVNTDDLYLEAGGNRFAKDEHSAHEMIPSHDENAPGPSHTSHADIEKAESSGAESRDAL
Method: FIG. 7A illustrates sugar uptake kinetics by SR8D8. FIG. 7B illustrates sugar uptake kinetics by SR8D8 expressing AtSWEET1. FIG. 7C illustrates sugar uptake kinetics by SR8D8 expressing ScGal2. FIG. 7D illustrates sugar uptake kinetics by SR8D8 expressing AtSWEET7. FIG. 7E illustrates sugar uptake kinetics by SR8D8 expressing LST1_205437. Initial xylose uptake (20 s) was measured at 30° C. over a concentration range of 1 to 500 mM xylose. FIG. 7F illustrates sugar uptake kinetics by SR8D8. FIG. 7G illustrates sugar uptake kinetics by SR8D8 expressing AtSWEET1. FIG. 7H illustrates sugar uptake kinetics by SR8D8 expressing ScGal2. FIG. 7I illustrates sugar uptake kinetics by SR8D8 expressing AtSWEET7. FIG. 7J illustrates sugar uptake kinetics by SR8D8 expressing LST1_205437. Initial glucose uptake (5 s) was measured at 30° C. over a concentration range of 0.2 to 100 mM glucose. Curve fitting for Michaelis-Menten kinetics was applied to data of three independent measurements at each concentration.
A xylose fermenting S. cerevisiae yeast (SR8) with HXT1-7Δ, GAL2Δ deletions was used for transporter screening and characterization (SR8D8). SR8D8 was grown in YPE medium/plate (10 g/L yeast extract, 20 g/L peptone, and 5 g/L ethanol). […] Biomass was calculated from the OD600 measured using a Biomate 5 UV-visible spectrophotometer (Fisher, NY, USA). All growth rates were measured using a Bioscreen C plate reader system (Growth Curves USA, Piscataway, NJ, USA). […]
SR8D8 containing the respective plasmid was grown on selective YPE medium to an OD600 of 1-1.5, harvested by centrifugation, and washed twice in ice-cold uptake buffer (100 mM potassium phosphate, pH 6.5). […] Radioactivity was analyzed in a Beckman-Coulter LS6500 multi-purpose liquid scintillation counter (Beckman-Coulter, CA, USA).
Uptake was measured at sugar concentrations 0.2, 1, 5, 25, and 100 mM for glucose and 1, 5, 25, 66, 100, 200, and 500 mM for xylose. Inhibition of xylose uptake by glucose was measured at 25, 66, and 100 mM xylose with additional 25 and 100 mM unlabeled glucose.

[2] = target: T2, Saccharomyces cerevisiae ScGal2 (Gal2) transporter, SEQ ID NO:32 (Saccharomyces cerevisiae, UniProt P13181); test: Inhibition of xylose uptake by glucose, SR8D8 expressing ScGal2; format: cell-based; conditions: in words
T2 construct: expressed in transfected cells; host or cells: S. cerevisiae SR8D8 (SR8 with HXT1-7 and GAL2 deleted), plasmid p42K-GPD1p-CYC1t
T2 sequence (P13181 1-574): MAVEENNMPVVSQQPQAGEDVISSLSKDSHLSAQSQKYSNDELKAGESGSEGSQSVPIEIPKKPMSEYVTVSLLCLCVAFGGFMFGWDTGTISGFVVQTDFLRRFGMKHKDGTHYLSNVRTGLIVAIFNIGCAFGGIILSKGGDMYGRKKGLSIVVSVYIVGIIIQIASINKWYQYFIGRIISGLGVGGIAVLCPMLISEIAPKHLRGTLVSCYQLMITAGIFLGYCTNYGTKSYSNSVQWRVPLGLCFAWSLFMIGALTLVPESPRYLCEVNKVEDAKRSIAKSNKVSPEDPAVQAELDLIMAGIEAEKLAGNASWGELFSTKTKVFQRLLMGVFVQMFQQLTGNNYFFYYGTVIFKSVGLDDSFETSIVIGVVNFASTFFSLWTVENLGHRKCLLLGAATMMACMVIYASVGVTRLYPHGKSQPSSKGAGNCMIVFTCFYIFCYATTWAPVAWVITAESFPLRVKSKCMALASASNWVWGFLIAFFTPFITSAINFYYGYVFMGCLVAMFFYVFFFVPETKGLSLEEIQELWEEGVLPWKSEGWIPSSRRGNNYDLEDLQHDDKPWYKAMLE
Method: Symbols: glucose (square), xylose (triangle up), DCW (circle), ethanol (triangle down), glycerol (diamond). […] Global curve fitting for Michaelis-Menten kinetics with competitive inhibition was applied to data of three independent measurements at each concentration.
SR8D8 containing the respective plasmid was grown on selective YPE medium to an OD600 of 1-1.5, harvested by centrifugation, and washed twice in ice-cold uptake buffer (100 mM potassium phosphate, pH 6.5). C14 labeled sugar uptake assay was done according to Boles and Oreb. Radioactivity was analyzed in a Beckman-Coulter LS6500 multi-purpose liquid scintillation counter (Beckman-Coulter, CA, USA).
Sugar solutions contained 0.135-0.608 μCi of D-[U-^14C]-glucose (290-300 mCi/mmol) or D-[1-^14C]-xylose (55 mCi/mmol) (PerkinElmer, MA, USA). Calculation of Km (Michaelis constant), Vmax (maximal initial uptake velocity), and K (inhibitor constant for competitive inhibition) was done by nonlinear regression analysis and global curve fitting in Prism 7 (GraphPad Software) with values of three independent measurements.

`OC[C@H]1OC(O)[C@H](O)[C@@H](O)[C@@H]1O` (stereo partly drawn) [Glucose] was tested, and the “Vmax (glucose)” value [1] was 47.0 ± 2.6 nmol/min/mg, the “inhibition of xylose transport by glucose” value ([2]; 25 mM glucose) was “complete xylose inhibition” and the “inhibition of xylose transport by glucose” value ([2]; 25 mM or 100 mM glucose) was “completely inhibited”.
